Laboratory results published in patent publication US10327423B2, “Antimicrobial compounds and compositions, and uses thereof” (Akeso Biomedical, Inc., priority 2014, dated 2019).

What was measured:
C. jejuni NCTC 11168 = assay: ELISA of C. jejuni binding to histo-blood group antigens (BgAgs); parameters: species or system Campylobacter jejuni; conditions: for binding of C. jejuni to Le^b and H-II after growth in medium with Fe-QA: washed away before ELISA, one and four passages
Method: Binding of C. jejuni NCTC 11168 to the BgAgs (common ABO histo-blood group antigens), Le^b and H-II was measured after growing the bacteria in a medium that has either Fe-QA at 0.34 mM or 3.4 mM. The binding is measured by washing away the Fe-Q containing medium prior to testing the bacteria by ELISA as described below. Binding was measured after one passage and four passages (4 generations) with Fe-QA included in the medium, and compared to a control without Fe-QA.
The ELISA was performed as follows: BSA-BgAg conjugates were obtained from IsoSep, Tullinge, Sweden. Coupling of BgAgs to 96-well plates (NUNC Immobilizer Amino) was carried out by the addition of 100 μl BSA-BgAg (5 μg/ml unless stated otherwise) in sodium carbonate buffer to each well. Plates were incubated at room temperature for 2 h before unbound reagent was removed by washing three times in PBS-T. All wells were blocked by the addition of […] 1% BSA/PBS and incubated for 2 h at room temperature. After further washing in PBS-T, […] of DIG-tagged bacteria (at OD600 of 0.05) were added to each well and incubated overnight at 4° C. Plates were washed three times in PBS-T before […] anti-digoxigenin-POD solution (Roche Diagnostics; 1 in 5000 diluted in 1% BSA/PBS) was added and incubated for 1 h at room temperature. Plates were again vigorously washed in PBS-T and color developed by adding 100 μl ABTS substrate (Roche). Plates were read with an ELISA reader (Biotek EL800) at an absorbance of 405 nm. Specific binding was determined by subtracting the binding of each strain to BSA (typically OD405 0.07-0.09) from the binding to each BSA-BgAg conjugate. Inhibition assays shown in FIG. 4B were carried out as above but after the removal of the blocking solution, DIG-labeled C. jejuni was pre-incubated for 4 h with an Fe-QA solution (0.34 mM) before being added to each well.

[1] = tested on: PAO-1 strains of Pseudomonas aeruginosa; assay: Biofilm formation on contact lenses (ESEM); assay type: cell-based; conditions: FeQ 340 μM in LB; 37° C.; 24 hours
Method: To investigate biofilm formation on the contact lens, clinically determined PAO-1 strains of Pseudomonas aeruginosa were incubated with the lenses in either Luria-Bertani Media (LB) or LB with a final concentration of 340 μM FeQ at 37° C. for 24 hours in a non-shaking incubator. The lenses were then washed 6 times with PBS+0.05% Tween, before being stored overnight in PBS+0.05% Tween. In preparation for the ESEM, formaldehyde was added to a final concentration of 1% and incubated for 10 minutes in order to inactivate the bacteria. The lenses were then washed 4 times with PBS+0.05% Tween, and immediately before analysis the lenses were washed a further two times with distilled water.

## O=C1[O][Fe]23([O]C(=O)[C@]4(C[C@@H](O)[C@H](O)[C@H](O)C4)[O]2)([O]C(=O)[C@]2(C[C@@H](O)[C@H](O)[C@H](O)C2)[O]3)[O][C@@]12C[C@@H](O)[C@H](O)[C@H](O)C2 [FeQ, a complex of quinic acid with Fe III]
C. jejuni NCTC 11168; Fe-QA 0.34 mM in medium
  binding of C. jejuni to Le^b and H-II after growth in medium with Fe-QA: statistically significant decrease
C. jejuni NCTC 11168; Fe-QA 3.4 mM in medium
  binding of C. jejuni to Le^b and H-II after growth in medium with Fe-QA: marked decrease in binding
C. jejuni NCTC 11168; bacteria pre-incubated 4 h with Fe-QA 0.34 mM
  inhibition of binding of C. jejuni 11168 to BgAgs (Core-I, Core-II, H-I, H-II, Leb, Ley, Lex): significant inhibition of binding
[1]
  biofilm formation on contact lens (ESEM): inhibits biofilm formation
